Measurements taken from ChEMBL document CHEMBL1148228, “Synthesis of N tau-arylhistidine derivatives via direct N-arylation” (Bioorg Med Chem Lett, 2004).

Species on record: Oryctolagus cuniculus
Test: Inhibitory concentration of compound against antigen binding site in immunized rabbits
Assay type: functional, organism-based

IC50: ~1 µM
SMILES: CC(=O)NC(Cc1cn(-c2ccc(Br)cc2)cn1)C(=O)O (stereo unspecified)
